Experimental data as given in patent US9718823B2, “2, 6-Di-nitrogen-containing substituted purine derivative, and preparation method, pharmaceutical composition and use thereof” (Zhejiang Medicine Co., Ltd. Xinchang Pharmaceutical Factory, priority 2013, dated 2017).
Where two headings read alike, the source gives them in different places.

Tests used:
Assay type in all cases: biochemical
PI3Kδ = target: T1, PI3Kδ (Homo sapiens, UniProt O00329); test: Inhibitory activity to PI3K δ, PI 3-Kinase (human) HTRF Assay kit; settings: for inhibition at 1 µM: 1 μM (Table 7); for inhibition at 0.4 µM: 0.4 μM (Table 8); for inhibition at 2 µM: 2 μM (Table 8)
T1 construct: purchased Millipore 14-604
T1 sequence (O00329 whole entry): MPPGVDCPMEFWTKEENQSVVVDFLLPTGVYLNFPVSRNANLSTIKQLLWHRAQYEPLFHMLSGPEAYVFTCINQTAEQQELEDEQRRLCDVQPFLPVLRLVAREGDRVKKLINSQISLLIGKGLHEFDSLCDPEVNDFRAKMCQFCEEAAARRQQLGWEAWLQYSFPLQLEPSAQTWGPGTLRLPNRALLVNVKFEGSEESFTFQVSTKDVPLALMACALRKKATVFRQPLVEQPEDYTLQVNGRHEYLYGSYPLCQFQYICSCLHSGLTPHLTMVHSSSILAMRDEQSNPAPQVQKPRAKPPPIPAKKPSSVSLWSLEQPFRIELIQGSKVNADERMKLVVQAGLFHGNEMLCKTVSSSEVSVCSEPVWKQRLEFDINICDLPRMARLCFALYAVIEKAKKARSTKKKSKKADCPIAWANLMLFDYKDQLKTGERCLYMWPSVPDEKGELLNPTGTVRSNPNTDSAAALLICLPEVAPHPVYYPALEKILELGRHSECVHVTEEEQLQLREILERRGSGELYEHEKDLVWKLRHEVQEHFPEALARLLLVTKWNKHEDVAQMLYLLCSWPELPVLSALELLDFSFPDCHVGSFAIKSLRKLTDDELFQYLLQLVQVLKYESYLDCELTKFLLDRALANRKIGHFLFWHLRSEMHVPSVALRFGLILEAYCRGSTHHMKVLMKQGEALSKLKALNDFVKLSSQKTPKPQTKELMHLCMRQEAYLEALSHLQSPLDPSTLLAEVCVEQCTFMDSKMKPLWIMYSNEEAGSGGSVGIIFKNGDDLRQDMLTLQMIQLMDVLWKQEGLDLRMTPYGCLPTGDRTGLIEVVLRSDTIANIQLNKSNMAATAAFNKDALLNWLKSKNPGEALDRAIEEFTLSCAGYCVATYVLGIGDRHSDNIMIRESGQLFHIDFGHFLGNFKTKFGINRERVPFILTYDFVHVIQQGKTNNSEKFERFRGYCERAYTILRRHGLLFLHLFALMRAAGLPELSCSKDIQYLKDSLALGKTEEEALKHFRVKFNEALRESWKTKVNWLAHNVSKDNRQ
T1 sequence (P27986 whole entry partner): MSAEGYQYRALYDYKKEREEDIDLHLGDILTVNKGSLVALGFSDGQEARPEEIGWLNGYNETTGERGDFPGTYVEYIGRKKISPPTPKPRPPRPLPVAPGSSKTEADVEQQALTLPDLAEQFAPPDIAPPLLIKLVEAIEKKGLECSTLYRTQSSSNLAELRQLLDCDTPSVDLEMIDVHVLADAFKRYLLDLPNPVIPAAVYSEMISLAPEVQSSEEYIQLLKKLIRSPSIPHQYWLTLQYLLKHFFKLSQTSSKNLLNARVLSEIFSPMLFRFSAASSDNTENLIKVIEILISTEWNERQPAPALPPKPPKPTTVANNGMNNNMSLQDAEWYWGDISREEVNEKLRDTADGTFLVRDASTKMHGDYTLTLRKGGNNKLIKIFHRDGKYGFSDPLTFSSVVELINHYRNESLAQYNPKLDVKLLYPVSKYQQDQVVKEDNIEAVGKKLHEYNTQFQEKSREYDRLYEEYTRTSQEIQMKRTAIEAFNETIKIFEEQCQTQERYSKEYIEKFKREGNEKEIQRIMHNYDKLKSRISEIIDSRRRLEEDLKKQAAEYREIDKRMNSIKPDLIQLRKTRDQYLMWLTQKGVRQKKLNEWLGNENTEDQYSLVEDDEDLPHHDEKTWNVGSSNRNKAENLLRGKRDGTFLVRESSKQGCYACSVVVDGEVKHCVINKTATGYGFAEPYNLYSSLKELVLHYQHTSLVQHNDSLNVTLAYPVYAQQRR
Procedure: Study on the inhibitory activity of the compounds of present invention to PI 3κα, PI3κδ and PI3κγ.
(§1) PI 3-Kinase (human) HTRF™ Assay kit (Cat.33-017, Millipore)
For example, 10 μL DTT is added into 500 μL 4× Reaction Buffer, and water is added to 1.5 mL.
The Test compounds are dissolved with DMSO to 1 mM as storage liquid. 2 μL of each of storage liquid is added into 48 μL ddH2O, to obtain the 40 μM compounds solution containing 4% DMSO. After mixing, 3 μL of each of the solution is added into 27 μL 4% DMSO (in ddH2O) to obtain the 4 μM compounds solution. […]
The screening concentration of PI 3k δ kinase: 2 ng/well,
(§2) Kinase is diluted with 2×PIP2 operating fluid, the concentration of kinase operating fluid is 2 times of screening concentration.
The concentration of ATP is 100 μM in 20 μL kinase reaction system.
(§3) Stop A and Stop B are mixed according to the proportion of 3:1, and are placed for 2 hours at room temperature to obtain the stop solution available.
(§4) DM C, DM A and DM B are mixed according to the proportion of 18:1:1, and are placed for 2 hours at room temperature to obtain the detection solution available.

PI3 K γ = target: T2, PI3 K γ (Homo sapiens, UniProt P48736); test: Inhibitory activity to PI3K γ, PI 3-Kinase (human) HTRF Assay kit; settings: read-out: Inhibition rate % to PI3 K γ
T2 construct: purchased Biology, Medicilon
T2 sequence (P48736 whole entry): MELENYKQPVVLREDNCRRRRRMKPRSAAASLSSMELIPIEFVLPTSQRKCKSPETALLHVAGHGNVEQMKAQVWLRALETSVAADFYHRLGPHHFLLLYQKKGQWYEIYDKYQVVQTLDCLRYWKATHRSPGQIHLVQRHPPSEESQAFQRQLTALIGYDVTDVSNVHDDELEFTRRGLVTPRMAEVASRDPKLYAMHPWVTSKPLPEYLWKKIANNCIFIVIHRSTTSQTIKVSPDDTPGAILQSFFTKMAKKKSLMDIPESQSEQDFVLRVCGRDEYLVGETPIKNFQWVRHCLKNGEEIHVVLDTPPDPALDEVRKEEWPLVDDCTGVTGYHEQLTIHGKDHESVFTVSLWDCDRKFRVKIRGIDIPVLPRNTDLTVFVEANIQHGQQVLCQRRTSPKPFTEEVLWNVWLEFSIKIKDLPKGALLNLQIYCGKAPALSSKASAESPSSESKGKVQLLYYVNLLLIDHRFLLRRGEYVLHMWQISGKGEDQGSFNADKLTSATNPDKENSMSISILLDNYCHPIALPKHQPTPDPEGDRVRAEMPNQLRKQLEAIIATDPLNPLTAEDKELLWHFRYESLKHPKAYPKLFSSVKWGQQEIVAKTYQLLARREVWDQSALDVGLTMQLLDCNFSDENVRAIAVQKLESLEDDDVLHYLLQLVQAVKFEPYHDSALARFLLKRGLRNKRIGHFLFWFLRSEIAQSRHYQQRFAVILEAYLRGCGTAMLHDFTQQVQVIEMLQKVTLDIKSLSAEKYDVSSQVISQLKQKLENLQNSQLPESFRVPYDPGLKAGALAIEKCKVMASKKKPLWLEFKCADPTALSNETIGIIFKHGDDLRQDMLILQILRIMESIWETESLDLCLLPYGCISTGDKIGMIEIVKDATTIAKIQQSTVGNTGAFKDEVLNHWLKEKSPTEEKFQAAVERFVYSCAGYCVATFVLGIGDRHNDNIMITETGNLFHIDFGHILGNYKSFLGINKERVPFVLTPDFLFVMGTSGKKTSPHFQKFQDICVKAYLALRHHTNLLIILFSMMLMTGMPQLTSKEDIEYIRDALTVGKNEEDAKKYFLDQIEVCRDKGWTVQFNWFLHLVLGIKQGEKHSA
Excerpt: Study on the inhibitory activity of the compounds of present invention to PI 3κα, PI3κδ and PI3κγ. Two or three concentrations of the compounds are selected to preliminary screening to calculate respectively the activity inhibition rate of the compounds of corresponding concentrations to enzyme, then the compounds with better activity are selected by preliminary screening for IC50 test.
as §1
PI 3k γ (Biology, Medicilon)
4× Reaction Buffer (Cat.33-002, Millipore) is diluted with ddH2O to 1.33×, and 1M DTT is added to make the final concentration as 6.67 mM. For example, 10 μL DTT is added into 500 μL 4× Reaction Buffer, and water is added to 1.5 mL.
The Test compounds are dissolved with DMSO to 1 mM as storage liquid. 2 μL of each of storage liquid is added into 48 μL ddH2O, to obtain the 40 μM compounds solution containing 4% DMSO. After mixing, 3 μL of each of the solution is added into 27 μL 4% DMSO (in ddH2O) to obtain the 4 μM compounds solution. 5 μL of each dilute solution is added into 384-well plates, then the final concentration of the compounds in the 20 μL final kinase reaction system is 10 μM and 1 μM respectively contained 1% DMSO. The dilution methods of compounds are similar to the preliminary screening in IC50 test.
2×PIP2 working fluid is prepared with 1.33× reaction buffer to the final concentration of 20 μM.
The screening concentration of PI 3k γ kinase: 80 ng/well,
as §2
10 mM ATP is diluted with 1.33× reaction buffer to 400 μM. The concentration of ATP is 100 μM in 20 μL kinase reaction system.
as §3, §4

PDGFR β enzyme = target: T3, PDGFR β enzyme (Homo sapiens, UniProt P09619); test: Inhibitory activity to PDGFR β enzyme, HTRF kinEASE TK kit; settings: read-out: Inhibition rate % (PDGFR β)
T3 construct: purchased Invitrogen P3082
T3 sequence (P09619 33-1106): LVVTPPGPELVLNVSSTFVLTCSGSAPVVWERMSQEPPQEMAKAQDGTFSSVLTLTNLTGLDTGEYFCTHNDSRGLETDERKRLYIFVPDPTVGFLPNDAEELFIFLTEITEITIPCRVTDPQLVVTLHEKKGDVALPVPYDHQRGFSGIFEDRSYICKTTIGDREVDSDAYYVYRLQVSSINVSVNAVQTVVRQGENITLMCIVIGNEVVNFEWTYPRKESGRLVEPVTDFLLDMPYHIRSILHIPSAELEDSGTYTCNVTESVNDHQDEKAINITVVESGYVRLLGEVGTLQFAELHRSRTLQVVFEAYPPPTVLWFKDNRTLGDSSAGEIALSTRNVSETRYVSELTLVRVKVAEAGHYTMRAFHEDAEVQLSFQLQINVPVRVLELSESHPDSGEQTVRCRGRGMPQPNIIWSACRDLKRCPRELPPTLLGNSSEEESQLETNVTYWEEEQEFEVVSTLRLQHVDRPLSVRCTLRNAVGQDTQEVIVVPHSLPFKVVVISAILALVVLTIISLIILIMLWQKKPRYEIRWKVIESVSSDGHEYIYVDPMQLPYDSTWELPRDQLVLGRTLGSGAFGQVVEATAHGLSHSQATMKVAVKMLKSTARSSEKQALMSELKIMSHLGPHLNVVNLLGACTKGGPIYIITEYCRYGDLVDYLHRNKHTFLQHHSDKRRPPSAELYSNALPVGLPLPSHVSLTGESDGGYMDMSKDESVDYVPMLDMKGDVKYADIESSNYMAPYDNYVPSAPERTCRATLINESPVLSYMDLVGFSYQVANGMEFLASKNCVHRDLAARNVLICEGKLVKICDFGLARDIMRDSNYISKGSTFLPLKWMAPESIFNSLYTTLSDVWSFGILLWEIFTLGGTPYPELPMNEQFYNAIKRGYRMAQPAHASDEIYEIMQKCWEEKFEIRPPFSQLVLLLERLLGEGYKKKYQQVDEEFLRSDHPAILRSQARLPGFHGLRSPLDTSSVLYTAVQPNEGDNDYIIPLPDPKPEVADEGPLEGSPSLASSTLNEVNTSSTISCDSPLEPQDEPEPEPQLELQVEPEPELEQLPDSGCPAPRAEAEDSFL
Procedure: HTRF kinEASE TK (Cat.62TK0PEC, Cisbio)
PDGFR β enzyme (Cat.P3082, Invitrogen)
1 mL 1×Kinase Buffer includes 200 μL 5×Enzyme buffer, 5 μL 1M MgCl2, 1 μL 1M DTT, 1 μL 1M MnCl2, 20 μL 2500 nM SEB, 773 μL ddH2O.
TK-Substrate and ATP are diluted to 2.5 times of reaction concentration with 1×PDGFR β Kinase Buffer.
5×PDGFR β enzyme working solution is prepared with 1×PDGFR β kinase buffer.
4×Sa-XL665 working solution is prepared with Detection Buffer.
TK-Ab-Cryptate is diluted 100 times with Detection Buffer to use as working solution.

[1] = read-out: Inhibition rate % to PI3Kδ
[2] = 10 μM (Table 7), read-out: Inhibition rate % to PI3Kδ
[3] = read-out: Inhibition rate % to PI3K delta
[4] = 10 μM (Table 8), read-out: Inhibition rate % to PI3K delta

Row | SMILES | inhibition at 1 µM (PI3Kδ; [1]) | inhibition at 10 µM (PI3Kδ; [2]) | inhibition at 1 µM (PI3 K γ) | inhibition at 10 µM (PI3 K γ) | inhibition at 1 µM (PDGFR β enzyme; 1 μM) | inhibition at 10 µM (PDGFR β enzyme) | inhibition at 0.4 µM (PI3Kδ; [3]) | inhibition at 2 µM (PI3Kδ; [3]) | inhibition at 10 µM (PI3Kδ; [4]) | inhibition at 1 µM (PDGFR β enzyme)
1 | Fc1cccc(-c2ccnc3ccc(Nc4nc(NC5CC5)c5nc[nH]c5n4)cc23)c1 [MED1007-64, N6-cyclopropyl-N2-(4-(3-fluorophenyl)quinoline-6-yl)-9H-purine-2,6-diamine] | 14.1% | 88.7% | -4.23% | 15.9% | -3.26% | 20.1% |  |  |  | 
2 | Oc1nc(Nc2ccc3nccc(-c4ccc5c(c4)OCO5)c3c2)nc2[nH]cnc12 [MED1007-139, 2-(4-(benzo[1,3]-dioxole-5-yl)quinoline-6-ylamino)-9H-purine-6-ol-methanesulfonate] |  |  |  |  |  |  | 4.29% | 15% | 20.1% | 
3 | CC(C)Oc1nc(Nc2ccc3nccc(N4CCNCC4)c3c2)nc2[nH]cnc12 [MED1007-58, N-(6-isopropoxy-9H-purine-2-yl)-4-(piperazine-1-yl) quinoline-6-amine] | 2.11% | 35% | -0.29% | -0.98% | 3.93% | 29.5% |  |  |  | 
4 | CC(C)Oc1nc(Nc2ccc3nccc(-c4cccc(F)c4)c3c2)nc2[nH]cnc12 [MED1007-135, 4-(3-fluorophenyl)-N-(6-isopropoxy-9H-purine-2-yl) quinoline-6-amine-methanesulfonate] |  |  |  |  |  |  | 27.2% | 59.6% | 83.4% | 
5 | COC(=O)c1ccc(-c2ccnc3ccc(Nc4nc(NC5CC5)c5nc[nH]c5n4)cc23)cc1 [MED1007-59, 4-(6-(6-(cyclopropylamino)-9H-purine-2-ylamino)quinoline-4-yl) p-methyl benzoate] | 18% | 59% | 0.83% | 4.97% | 4.39% | 0.93% |  |  |  | 
6 | Cc1ccnc2ccc(Nc3nc(NC4CC4)c4nc[nH]c4n3)cc12 [MED1007-113, N6-cyclopropyl-N2-(4-methylquinoline-6-yl)-9H-purine-2,6-diamine dihydrate di-methanesulfonate] |  |  |  |  |  |  | 30% | 37.7% | 68.9% | 
7 | Oc1nc(Nc2ccc3nccc(-c4ccccc4)c3c2)nc2[nH]cnc12 [MED1007-110, 2-(4-phenylquinoline-6-ylamino)-9H-purine-6-ol] |  |  |  |  |  |  | 6.26% | 2.94% | 12.6% | 
8 | CC(C)Oc1nc(Nc2ccc3nccc(-c4ccc(F)cc4)c3c2)nc2[nH]cnc12 [MED1007-136, 4-(4-fluorophenyl)-N-(6-isopropoxy-9H-purine-2-yl) quinoline-6-amine-methanesulfonate] |  |  |  |  |  |  | 15.7% | 44.8% | 80.5% | 
9 | c1cc(N2CCNCC2)c2cc(Nc3nc(NC4CC4)c4nc[nH]c4n3)ccc2n1 [MED1007-33, N6-cyclopropyl-N2-(4-(piperazine-1-yl)quinoline-6-yl)-9H-purine-2,6-diamine] | 21.4% | 63% | 21% | 20% | 4.71% | 25.6% |  |  |  | 
10 | CCc1ccnc2ccc(Nc3nc(NC4CC4)c4nc[nH]c4n3)cc12 [MED1007-114, N6-cyclopropyl-N2-(4-ethylquinoline-6-yl)-9H-purine-2,6 diamine dihydrate di-methanesulfonate] |  |  |  |  |  |  | 28.4% | 49.1% | 78.9% | 
11 | c1cc(N2CCOCC2)c2cc(Nc3nc(NC4CC4)c4nc[nH]c4n3)ccc2n1 [MED1007-32, N6-cyclopropyl-N2-(4-morpholinequinoline-6-yl)-9H-purine-2,6-diamine] | 31% | 42.1% | -13.7% | 4.28% | 9.16% | 24.5% |  |  |  | 
12 | CC(C)Oc1nc(Nc2ccc3ncccc3c2)nc2[nH]cnc12 [MED1007-34, N-(6-isopropoxy-9H-purine-2-yl) quinoline-6-amine] | 40.2% | 69.8% | 24.4% | 57.3% | 53.8% | 98.8% |  |  |  | 
13 | CC(C)Oc1nc(Nc2ccc3nccc(-c4ccc5c(c4)OCO5)c3c2)nc2[nH]cnc12 [MED1007-133, 4-(benzo[1,3]-dioxole-5-yl)-N-(6-isopropoxy-9H-purine-2-yl) quinoline-6-amine-methanesulfonate] |  |  |  |  |  |  | 20.8% | 69% | 83.4% | 
14 | COc1cccc(-c2ccnc3ccc(Nc4nc(NC5CC5)c5nc[nH]c5n4)cc23)c1 [MED1007-61, N6-cyclopropyl-N2-(4-(3-methoxyphenyl)quinoline-6-yl)-9H-purine-2,6-diamine] | 16.7% | 102% | -8.18% | 20.4% | 4.72% | 55% |  |  |  | 
15 | COC(=O)C1(Nc2nc(Nc3ccc4nccc(-c5ccccc5)c4c3)nc3[nH]cnc23)CC1 [MED1007-15, 1-(2-(4-phenylquinoline-6-ylamino)-9H-purine-6-ylamino)cyclopropane carboxylic acid methyl ester] | 1.25% | 8.64% | 10.4% | 19.1% | 31.2% | 93.5% |  |  |  | 
16 | c1ccc(-c2ccnc3ccc(Nc4nc(N5CCOCC5)c5nc[nH]c5n4)cc23)cc1 [MED1007-109, N-(6-morpholine-9H-purine-2-yl)-4-phenyl quinoline-6-amine] |  |  |  |  |  |  | 22.6% | 44% | 91.6% | 
17 | COc1ccc(-c2ccnc3ccc(Nc4nc(O)c5nc[nH]c5n4)cc23)cc1 [MED1007-132, 2-(4-(4-methoxy-phenyl)quinoline-6-ylamino)-9H-purine-6-ol-methanesulfonate] |  |  |  |  |  |  | -0.76% | 8.54% | 55% | 
18 | COC(=O)c1cccc(-c2ccnc3ccc(Nc4nc(NC5CC5)c5nc[nH]c5n4)cc23)c1 [MED1007-60, 4-(6-(6-(cyclopropylamino)-9H-purine-2-ylamino)quinoline-4-yl) m-methyl benzoate] | -2.33% | 34.1% | -2.59% | 4.45% | -0.63% | 10.6% |  |  |  | 
19 | CN[C@@H]1C[C@H]2O[C@@](C)([C@@H]1OC)n1c3ccccc3c3c4c(c5c6ccccc6n2c5c31)C(=O)NC4 [Staurosporine, reference compound] |  |  |  |  |  |  |  |  |  | 99.8%
20 | COc1ccc(-c2ccnc3ccc(Nc4nc(OC(C)C)c5nc[nH]c5n4)cc23)cc1OC [MED1007-137, 4-(3,4-dimethoxyphenyl)-N-(6-isopropoxy-9H-purine-2-yl) quinoline-6-amine-methanesulfonate] |  |  |  |  |  |  | 27.6% | 63.3% | 99.1% | 
